Marks after values point to notes of the source that are not given here.
Each molecule was assayed on circulating lymphocytes in whole blood (assay: number of circulating lymphocytes in whole blood of rats). Conditions: 6 h after oral administration of 10 mg/kg to normotensive male Wistar rats, compared to group treated with vehicle only.
Type: in vivo, normotensive male Wistar rats
Method: Normotensive male Wistar rats are housed in climate-controlled conditions with a 12-hour light/dark cycle, and have free access to normal rat chow and drinking water. Blood (0.5 mL) is collected by retro-orbital sampling before drug administration, and 3 and 6 h thereafter. Blood cell count is measured in whole blood using a Beckman-Coulter Synchron CX5 Pro cytometer. Statistical analysis of lymphocyte counts are performed by analysis of variance (ANOVA) using Statistica (StatSoft) and the Student-Newman-Keuls procedure for multiple comparisons. Thus, compounds of the invention decrease the number of circulating lymphocytes in whole blood when compared to pre-drug values.

Row | Compound | Lymphocyte counts [%]
1 | Cc1ccccc1N1C(=O)/C(=C/c2ccc(OCC(O)CO)c(Cl)c2)S/C1=N\C(C)C (racemic) [Example 24, rac-5-[3-chloro-4-(2,3-dihydroxy-propoxy)-benz[Z]ylidene]-2-([Z]-isopropylimino)-3-o-tolyl-thiazolidin-4-one] | −54
2 | Cc1cccc(N2C(=O)/C(=C/c3ccc(OCC(O)CO)c(Cl)c3)S/C2=N\C(C)C)c1C (racemic) [Example 46, rac-5-[3-chloro-4-(2,3-dihydroxy-propoxy)-benz[Z]ylidene]-3-(2,3-dimethyl-phenyl)-2-([Z]-isopropylimino)-thiazolidin-4-one] | −37
3 | CCC/N=C1\S/C(=C\c2ccc(OCC(O)CO)c(Cl)c2)C(=O)N1c1ccccc1 (racemic) [Example 77, rac-5-[3-chloro-4-(2,3-dihydroxy-propoxy)-benz[Z]ylidene]-3-phenyl-2-([Z]-propylimino)-thiazolidin-4-one] | −55
4 | CCC/N=C1\S/C(=C\c2ccc(OCC(O)CO)c(Cl)c2)C(=O)N1c1ccccc1C (racemic) [Example 84, rac-5-[3-chloro-4-(2,3-dihydroxy-propoxy)-benz[Z]ylidene]-2-([Z]-propylimino)-3-o-tolyl-thiazolidin-4-one] | −68
5 | CCC/N=C1\S/C(=C\c2ccc(OCC(O)CO)c(Cl)c2)C(=O)N1c1cccc(C)c1C (racemic) [Example 95, rac-5-[3-chloro-4-(2,3-dihydroxy-propoxy)-benz[Z]ylidene]-3-(2,3-dimethyl-phenyl)-2-([Z]-propylimino)-thiazolidin-4-one] | −53
6 | CC(C)/N=C1\S/C(=C\c2ccc(OCCO)cc2)C(=O)N1c1ccccc1 [Example 4, 5-[4-(2-Hydroxy-ethoxy)-benz-(Z)-ylidene]-2-[(Z)-isopropylimino]-3-phenyl-thiazolidin-4-one] | −32
7 | CC(C)/N=C1\S/C(=C\c2ccc(OCCO)c(Cl)c2)C(=O)N1c1ccccc1 [Example 7, 5-[3-Chloro-4-(2-hydroxy-ethoxy)-benz-(Z)-ylidene]-2-[(Z)-isopropylimino]-3-phenyl-thiazolidin-4-one] | −67
8 | Cc1cccc(N2C(=O)/C(=C/c3ccc(OCCO)c(Cl)c3)S/C2=N\C(C)C)c1C [Example 42, 5-[3-chloro-4-(2-hydroxy-ethoxy)-benz[Z]ylidene]-3-(2,3-dimethyl-phenyl)-2-([Z]-isopropylimino)-thiazolidin-4-one] | −23
9 | CCC/N=C1\S/C(=C\c2ccc(OCCO)c(Cl)c2)C(=O)N1c1ccccc1 [Example 75, 5-[3-chloro-4-(2-hydroxy-ethoxy)-benz[Z]ylidene]-3-phenyl-2-([Z]-propylimino)-thiazolidin-4-one] | −47
10 | CCC/N=C1\S/C(=C\c2ccc(OCCO)c(C)c2)C(=O)N1c1ccccc1 [Example 76, 5-[4-(2-hydroxy-ethoxy)-3-methyl-benz[Z]ylidene]-3-phenyl-2-([Z]-propylimino)-thiazolidin-4-one] | −58
11 | CCC/N=C1\S/C(=C\c2ccc(OC[C@H](O)CO)c(Cl)c2)C(=O)N1c1ccccc1C [Example 85, 5-[3-chloro-4-((2R)-2,3-dihydroxy-propoxy)-benz-(Z)-ylidene]-2-[(Z)-propylimino]-3-o-tolyl-thiazolidin-4-one] | −63
12 | CCC/N=C1\S/C(=C\c2ccc(OCCO)c(Cl)c2)C(=O)N1c1cccc(C)c1C [Example 91, 5-[3-chloro-4-(2-hydroxy-ethoxy)-benz[Z]ylidene]-3-(2,3-dimethyl-phenyl)-2-([Z]-propylimino)-thiazolidin-4-one] | −35
13 | CN(C)N=C1SC(=Cc2ccc(OCCO)cc2)C(=O)N1c1ccccc1 [Example 100, 2-(dimethyl-hydrazono)-5-[4-(2-hydroxy-ethoxy)-benz[Z]ylidene]-3-phenyl-thiazolidin-4-one] | −53
14 | CC/N=C1\S/C(=C\c2ccc(OCCO)c(Cl)c2)C(=O)N1c1ccccc1 [Example 103, 5-[3-chloro-4-(2-hydroxy-ethoxy)-benz[Z]ylidene]-2-([Z]-Ethylimino)-3-phenyl-thiazolidin-4-one] | −47
15 | CC/N=C1\S/C(=C\c2ccc(OCCO)c(Cl)c2)C(=O)N1c1cccc(C)c1C [Example 110, 5-[3-chloro-4-(2-hydroxy-ethoxy)-benz[Z]ylidene]-3-(2,3-dimethyl-phenyl)-2-([Z]-ethylimino)-thiazolidin-4-one] | −30
16 | CC(C)/N=C1\S/C(=C\c2ccc(OCCO)c(Cl)c2)C(=O)N1C(C)C [Example 130, 5-[3-chloro-4-(2-hydroxy-ethoxy)-benz[Z]ylidene]-3-isopropyl-2-([Z]-isopropylimino)-thiazolidin-4-one] | −26

Same assay, conditions: at 3 mg/kg p.o.; 6 h after oral administration to normotensive male Wistar rats, compared to group treated with vehicle only

Row | Compound | Lymphocyte counts
17 | CCC/N=C1\S/C(=C\c2ccc(OC[C@@H](O)CO)c(Cl)c2)C(=O)N1c1ccccc1C [Example 86, (S)-5-[3-chloro-4-(2,3-dihydroxy-propoxy)-benz[Z]ylidene]-2-([Z]-propylimino)-3-o-tolyl-thiazolidin-4-one] | −30* %
